Assay [1] addresses T1, Acetylcholinesterase (Homo sapiens, UniProt P22303). The assay is described as follows: Inhibition of human erythrocyte AChE using acetylthiocholine iodide as substrate preincubated for 6 mins followed by substrate addition measured upto 180 secs by Ellman's method.
In assay [2] the target is T2, Amine oxidase [flavin-containing] B (Homo sapiens, UniProt P27338).
T2 sequence (P27338 whole entry): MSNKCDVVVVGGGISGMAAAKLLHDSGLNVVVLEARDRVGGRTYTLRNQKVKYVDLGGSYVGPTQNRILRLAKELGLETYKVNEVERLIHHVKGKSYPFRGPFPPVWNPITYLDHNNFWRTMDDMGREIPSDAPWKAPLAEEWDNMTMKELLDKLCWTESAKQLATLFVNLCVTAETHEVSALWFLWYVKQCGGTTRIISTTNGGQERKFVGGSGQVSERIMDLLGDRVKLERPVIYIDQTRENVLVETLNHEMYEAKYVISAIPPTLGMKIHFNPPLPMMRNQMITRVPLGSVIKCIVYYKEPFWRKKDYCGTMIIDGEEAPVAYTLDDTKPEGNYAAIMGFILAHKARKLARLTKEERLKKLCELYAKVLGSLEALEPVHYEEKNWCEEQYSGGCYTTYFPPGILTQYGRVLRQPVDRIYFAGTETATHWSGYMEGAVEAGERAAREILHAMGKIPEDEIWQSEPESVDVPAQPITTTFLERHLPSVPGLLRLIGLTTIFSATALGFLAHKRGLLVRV
The assay is described as follows: Inhibition of recombinant human MAO-B using p-tyramine as substrate preincubated for 15 mins followed by substrate addition measured upto 20 mins by Amplex red assay.

In assay [3] the target is Carbonic anhydrase 2 (Homo sapiens, UniProt P00918). The assay is described as follows: Binding affinity to human CA2 assessed as inhibition constant using p-nitrophenylacetate as substrate by spectrophotometry.
Assay [4] deals with T1, Acetylcholinesterase. The assay is described as follows: Binding affinity to human AChE assessed as inhibition constant using acetylthiocholine iodide as substrate preincubated for 10 mins followed by substrate addition by Ellman's method. On the technique in general: DTNB colorimetry detects thiols as they appear.
For assay [5], the target named is Carbonic anhydrase 1 (Homo sapiens, UniProt P00915). The experiment in a line: Binding affinity to human CA1 assessed as inhibition constant using p-nitrophenylacetate as substrate by spectrophotometry.
Chain of Carbonic anhydrase 1 (P00915 whole entry): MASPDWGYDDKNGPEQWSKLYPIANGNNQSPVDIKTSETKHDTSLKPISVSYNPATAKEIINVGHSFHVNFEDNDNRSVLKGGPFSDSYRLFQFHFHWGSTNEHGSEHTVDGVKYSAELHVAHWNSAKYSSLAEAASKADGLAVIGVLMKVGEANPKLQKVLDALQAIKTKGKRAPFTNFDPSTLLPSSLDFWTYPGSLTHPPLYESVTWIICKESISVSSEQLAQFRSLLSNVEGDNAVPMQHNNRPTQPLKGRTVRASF
The target of assay [6] is Muscarinic acetylcholine receptor M2 (Homo sapiens, UniProt P08172). The experiment in a line: Binding affinity to Muscarinic acetylcholine receptor M2 (unknown origin) assessed as inhibition constant.
Chain of Muscarinic acetylcholine receptor M2 (P08172 whole entry): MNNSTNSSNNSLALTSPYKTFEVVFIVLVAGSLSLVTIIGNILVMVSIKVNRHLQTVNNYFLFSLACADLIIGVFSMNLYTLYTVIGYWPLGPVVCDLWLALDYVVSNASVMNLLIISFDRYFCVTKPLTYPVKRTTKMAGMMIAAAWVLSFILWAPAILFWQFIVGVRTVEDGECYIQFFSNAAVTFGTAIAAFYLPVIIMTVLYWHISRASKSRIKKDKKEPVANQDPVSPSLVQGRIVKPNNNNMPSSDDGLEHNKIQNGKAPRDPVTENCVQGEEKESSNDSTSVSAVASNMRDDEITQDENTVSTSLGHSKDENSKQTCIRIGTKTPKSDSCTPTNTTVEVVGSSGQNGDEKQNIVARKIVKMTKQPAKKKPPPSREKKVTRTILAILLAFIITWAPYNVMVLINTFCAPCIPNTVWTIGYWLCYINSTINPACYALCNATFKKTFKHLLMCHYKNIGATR
Assay [7] has as its target Muscarinic acetylcholine receptor M1 (Homo sapiens, UniProt P11229). The experiment in a line: Binding affinity to Muscarinic acetylcholine receptor M1 (unknown origin) assessed as inhibition constant.
Assay [8] has as its target Muscarinic acetylcholine receptor M3 (Homo sapiens, UniProt P20309). The experiment in a line: Binding affinity to Muscarinic acetylcholine receptor M3 (unknown origin) assessed as inhibition constant.
Assay [9] addresses T1, Acetylcholinesterase. The experiment in a line: Inhibition of human AChE.
For assay [10], the target named is T1, Acetylcholinesterase. The experiment in a line: Inhibition of recombinant human AChE using acetylthiocholine as substrate at 100 uM preincubated for 5 mins followed by substrate addition measured for 1 min by Ellman's method relative to control. Particulars: time 6.0 min.
Assay [11] concerns the target T3, Amine oxidase [flavin-containing] A (Homo sapiens, UniProt P21397).
T3 sequence (P21397 whole entry): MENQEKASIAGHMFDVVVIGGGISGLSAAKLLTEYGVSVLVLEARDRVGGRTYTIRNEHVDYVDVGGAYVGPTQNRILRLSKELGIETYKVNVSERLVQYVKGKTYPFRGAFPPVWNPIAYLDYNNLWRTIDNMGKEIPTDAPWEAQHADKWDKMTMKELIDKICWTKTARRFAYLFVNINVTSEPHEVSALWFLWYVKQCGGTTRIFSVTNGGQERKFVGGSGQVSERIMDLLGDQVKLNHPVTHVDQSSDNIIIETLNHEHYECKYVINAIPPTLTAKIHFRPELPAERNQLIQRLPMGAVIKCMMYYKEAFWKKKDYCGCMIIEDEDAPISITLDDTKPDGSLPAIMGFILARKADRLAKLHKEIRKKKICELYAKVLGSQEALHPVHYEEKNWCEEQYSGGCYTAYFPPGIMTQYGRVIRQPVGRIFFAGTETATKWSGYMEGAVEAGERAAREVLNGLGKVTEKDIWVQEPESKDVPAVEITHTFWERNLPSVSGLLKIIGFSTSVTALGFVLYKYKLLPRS
The experiment in a line: Inhibition of recombinant human MAO-A expressed in BTI-TN-5B1-4 insect cells using p-tyramine as substrate at 100 uM preincubated for 15 mins followed by substrate addition measured after 20 mins by Amplex Red assay relative to control. Particulars: BTI-TN-5B1-4, human, time 35 min.

Assay [12] deals with T4, Cholinesterase (Equus caballus, UniProt P81908). The experiment in a line: Inhibition of equine BChE.
T4 sequence (P81908 whole entry): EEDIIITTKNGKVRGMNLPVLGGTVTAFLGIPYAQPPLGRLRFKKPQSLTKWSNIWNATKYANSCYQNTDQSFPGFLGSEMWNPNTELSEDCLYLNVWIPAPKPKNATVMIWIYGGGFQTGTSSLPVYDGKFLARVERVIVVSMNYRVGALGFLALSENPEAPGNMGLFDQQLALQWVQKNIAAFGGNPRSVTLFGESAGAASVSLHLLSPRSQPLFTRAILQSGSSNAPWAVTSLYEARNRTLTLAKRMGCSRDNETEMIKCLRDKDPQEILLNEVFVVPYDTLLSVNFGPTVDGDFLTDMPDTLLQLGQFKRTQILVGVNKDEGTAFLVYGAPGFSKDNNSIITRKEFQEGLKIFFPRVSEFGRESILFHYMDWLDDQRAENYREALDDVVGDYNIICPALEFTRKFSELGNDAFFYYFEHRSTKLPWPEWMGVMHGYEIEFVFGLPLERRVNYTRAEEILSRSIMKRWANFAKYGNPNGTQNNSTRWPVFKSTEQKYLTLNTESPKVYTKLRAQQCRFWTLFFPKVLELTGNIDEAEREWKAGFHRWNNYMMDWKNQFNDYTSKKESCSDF
Assay [13] concerns the target Acetylcholinesterase (Bos taurus, UniProt P23795).
Description: Inhibition of bovine AChE
Assay [14] has as its target High affinity cGMP-specific 3',5'-cyclic phosphodiesterase 9A (Homo sapiens, UniProt O76083). The experiment in a line: Inhibition of PDE9A (unknown origin).
Assay [15] addresses T4, Cholinesterase. The assay is described as follows: Inhibition of horse BChE using butyrylthiocholine as substrate measured for 5 mins by Ellman's method.
The target in assay [16] is T5, Cholinesterase (Homo sapiens, UniProt P06276). The assay is described as follows: Binding affinity to human BChE assessed as inhibition constant.
T5 sequence (P06276 whole entry): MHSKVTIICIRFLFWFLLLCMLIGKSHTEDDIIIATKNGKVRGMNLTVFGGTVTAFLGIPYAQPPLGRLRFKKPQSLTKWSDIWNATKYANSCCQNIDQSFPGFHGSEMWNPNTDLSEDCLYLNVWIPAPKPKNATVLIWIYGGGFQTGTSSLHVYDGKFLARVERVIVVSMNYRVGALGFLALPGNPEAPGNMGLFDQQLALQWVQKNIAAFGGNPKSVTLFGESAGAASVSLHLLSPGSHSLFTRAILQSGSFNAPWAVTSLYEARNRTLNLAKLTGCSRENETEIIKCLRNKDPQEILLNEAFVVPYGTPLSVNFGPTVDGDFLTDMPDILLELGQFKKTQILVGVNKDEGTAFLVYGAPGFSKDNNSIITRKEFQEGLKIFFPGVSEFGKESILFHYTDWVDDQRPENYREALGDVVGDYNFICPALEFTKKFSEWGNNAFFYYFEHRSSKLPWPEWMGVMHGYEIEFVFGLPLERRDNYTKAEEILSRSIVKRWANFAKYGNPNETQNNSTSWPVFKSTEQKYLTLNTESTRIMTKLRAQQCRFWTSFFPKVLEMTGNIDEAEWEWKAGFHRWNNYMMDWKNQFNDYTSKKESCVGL
The target in assay [17] is T1, Acetylcholinesterase. The experiment in a line: Binding affinity to human AChE assessed as inhibition constant.
Assay [18] in a line: Selectivity index, ratio of IC50 for human plasma BChE to IC50 for electric eel AChE.
Assay [19] addresses T5, Cholinesterase. The assay is described as follows: Binding affinity of human serum BChE assessed as inhibition constant by Ellman's method.
In assay [20] the target is Cholinesterases; ACHE & BCHE (Homo sapiens) (UniProt P06276+P22303). The assay is described as follows: Selectivity index, ratio of IC50 for AChE (unknown origin) to BChE (unknown origin). The class given is protein assay.
Chain of Cholinesterases; ACHE & BCHE (Homo sapiens) (P06276 whole entry, looked up): as the sequence (P06276 whole entry) above
Chain of Cholinesterases; ACHE & BCHE (Homo sapiens) (P22303 whole entry, looked up): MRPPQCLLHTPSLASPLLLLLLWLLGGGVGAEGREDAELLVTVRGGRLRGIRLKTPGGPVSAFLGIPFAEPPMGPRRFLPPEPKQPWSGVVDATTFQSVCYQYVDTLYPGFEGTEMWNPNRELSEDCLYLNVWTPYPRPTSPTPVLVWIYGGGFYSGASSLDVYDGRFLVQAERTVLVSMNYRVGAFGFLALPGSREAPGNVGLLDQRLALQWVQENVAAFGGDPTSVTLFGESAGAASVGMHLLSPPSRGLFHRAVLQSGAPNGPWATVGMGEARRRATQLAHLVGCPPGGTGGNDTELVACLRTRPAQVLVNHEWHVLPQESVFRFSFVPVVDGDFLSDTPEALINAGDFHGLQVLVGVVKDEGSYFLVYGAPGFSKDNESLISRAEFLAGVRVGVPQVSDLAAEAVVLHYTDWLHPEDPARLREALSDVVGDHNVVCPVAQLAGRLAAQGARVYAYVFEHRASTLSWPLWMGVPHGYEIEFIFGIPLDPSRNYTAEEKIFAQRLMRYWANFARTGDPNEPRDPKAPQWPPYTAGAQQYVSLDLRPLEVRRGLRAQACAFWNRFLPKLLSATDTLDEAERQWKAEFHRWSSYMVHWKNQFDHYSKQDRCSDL
The target of assay [21] is Acetylcholinesterase (Torpedo californica, UniProt P04058).
Chain of Acetylcholinesterase (Torpedo californica, UniProt P04058) (P04058 whole entry): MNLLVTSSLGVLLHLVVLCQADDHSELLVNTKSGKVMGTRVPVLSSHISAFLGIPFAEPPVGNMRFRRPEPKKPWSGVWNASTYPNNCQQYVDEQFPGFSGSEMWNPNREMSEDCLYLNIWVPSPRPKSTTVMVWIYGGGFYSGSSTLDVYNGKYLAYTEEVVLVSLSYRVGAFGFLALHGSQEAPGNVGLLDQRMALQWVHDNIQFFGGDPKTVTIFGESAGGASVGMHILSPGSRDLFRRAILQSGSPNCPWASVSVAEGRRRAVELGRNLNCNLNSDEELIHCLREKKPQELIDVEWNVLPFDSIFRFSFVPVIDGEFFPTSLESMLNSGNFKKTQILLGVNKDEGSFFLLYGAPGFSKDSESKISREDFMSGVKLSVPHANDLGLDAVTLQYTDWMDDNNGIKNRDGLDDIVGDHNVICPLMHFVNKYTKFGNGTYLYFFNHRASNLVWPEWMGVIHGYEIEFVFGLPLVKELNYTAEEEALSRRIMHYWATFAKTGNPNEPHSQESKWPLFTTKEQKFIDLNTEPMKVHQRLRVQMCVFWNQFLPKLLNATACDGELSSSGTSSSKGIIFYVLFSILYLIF
Description: Inhibition of Pacific electric ray AChE using acetylthiocholine iodide as substrate by Ellman's method

T1 sequence (P22303 whole entry): as the sequence (P22303 whole entry, looked up) above
Chain of Muscarinic acetylcholine receptor M3 (P20309 whole entry): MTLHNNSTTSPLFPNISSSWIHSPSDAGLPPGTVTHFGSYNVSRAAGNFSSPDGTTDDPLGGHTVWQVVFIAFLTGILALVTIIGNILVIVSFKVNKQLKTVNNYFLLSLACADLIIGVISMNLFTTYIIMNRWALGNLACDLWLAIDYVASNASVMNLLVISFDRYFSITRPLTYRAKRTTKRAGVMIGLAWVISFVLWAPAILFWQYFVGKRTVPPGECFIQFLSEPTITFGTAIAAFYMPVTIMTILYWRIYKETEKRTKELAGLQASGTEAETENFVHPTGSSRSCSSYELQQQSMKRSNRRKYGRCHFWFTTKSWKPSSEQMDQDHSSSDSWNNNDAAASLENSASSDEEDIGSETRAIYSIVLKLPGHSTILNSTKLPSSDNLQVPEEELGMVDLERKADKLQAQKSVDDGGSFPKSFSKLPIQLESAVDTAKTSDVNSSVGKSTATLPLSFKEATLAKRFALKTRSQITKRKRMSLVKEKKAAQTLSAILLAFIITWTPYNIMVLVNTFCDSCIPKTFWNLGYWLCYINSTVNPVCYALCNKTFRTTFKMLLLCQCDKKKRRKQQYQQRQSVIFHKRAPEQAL
Chain of High affinity cGMP-specific 3',5'-cyclic phosphodiesterase 9A (O76083 whole entry): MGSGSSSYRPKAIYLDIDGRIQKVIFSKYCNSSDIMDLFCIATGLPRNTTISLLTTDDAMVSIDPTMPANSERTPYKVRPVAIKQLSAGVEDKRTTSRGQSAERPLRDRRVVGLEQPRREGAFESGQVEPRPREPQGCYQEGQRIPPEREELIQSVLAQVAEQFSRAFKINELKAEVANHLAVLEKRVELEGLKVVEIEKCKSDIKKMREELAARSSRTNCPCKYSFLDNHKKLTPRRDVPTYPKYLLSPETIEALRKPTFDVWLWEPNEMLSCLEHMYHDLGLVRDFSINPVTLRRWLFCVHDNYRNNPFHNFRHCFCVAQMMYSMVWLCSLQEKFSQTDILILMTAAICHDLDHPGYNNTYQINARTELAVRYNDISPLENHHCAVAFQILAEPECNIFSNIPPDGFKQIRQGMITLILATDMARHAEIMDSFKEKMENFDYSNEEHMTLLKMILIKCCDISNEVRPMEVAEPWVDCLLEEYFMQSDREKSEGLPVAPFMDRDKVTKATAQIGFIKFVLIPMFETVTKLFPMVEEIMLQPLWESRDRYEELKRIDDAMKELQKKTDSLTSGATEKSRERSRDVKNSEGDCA
Chain of Acetylcholinesterase (Bos taurus, UniProt P23795) (P23795 whole entry): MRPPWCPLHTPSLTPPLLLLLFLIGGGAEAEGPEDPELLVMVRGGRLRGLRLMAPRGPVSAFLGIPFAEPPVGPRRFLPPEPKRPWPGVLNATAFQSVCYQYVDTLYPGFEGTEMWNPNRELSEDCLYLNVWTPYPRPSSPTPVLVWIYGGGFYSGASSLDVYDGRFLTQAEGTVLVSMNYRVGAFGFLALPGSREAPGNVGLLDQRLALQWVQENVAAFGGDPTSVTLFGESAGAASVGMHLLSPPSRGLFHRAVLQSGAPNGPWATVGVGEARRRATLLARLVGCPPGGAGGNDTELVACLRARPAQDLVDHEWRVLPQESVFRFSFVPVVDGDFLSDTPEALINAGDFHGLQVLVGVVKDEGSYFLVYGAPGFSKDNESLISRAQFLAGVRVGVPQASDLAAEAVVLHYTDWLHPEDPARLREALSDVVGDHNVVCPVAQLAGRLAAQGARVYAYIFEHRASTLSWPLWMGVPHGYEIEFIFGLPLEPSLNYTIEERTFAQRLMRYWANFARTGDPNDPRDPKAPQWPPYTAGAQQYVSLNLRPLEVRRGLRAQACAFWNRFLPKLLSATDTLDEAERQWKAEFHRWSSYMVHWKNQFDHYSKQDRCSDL

Regarding `Cc1c(Cl)c(=O)oc2cc(OCCCCSC(=S)N3CCCCC3C)ccc12` (stereo unspecified), the IC50 in assay [1] came to 6.8 nM; in assay [2], 876 nM.
Consider `COc1cc2c(c(OC)c1)CC(NC(=O)OCc1ccccc1)C2` (stereo unspecified), for which the Ki was 7.39 nM in assay [3], 0.261 nM in assay [4] and 5.61 nM in assay [5].
With `CNC(=O)Oc1cccc2c1CCC1C2CCN1CCC1CCCCC1` (stereo unspecified), the Ki in assay [6] is 132 nM; in assay [7] it was 657 nM; in assay [8], 1520 nM. The half-maximal inhibitory concentration (IC50) in assay [9] was 58 nM.
On to `C#CCN1CCC(CCc2cccc(OC(=O)Nc3ccccc3)c2)CC1`, for which the inhibition in assay [10] was 51.9%. Also, the inhibition at 100 µM in assay [11] amounted to 54%.
With `CCN(C)C(=O)Oc1cccc2c1NCC2CCC(=O)OC` (stereo unspecified), the half-maximal inhibitory concentration (IC50) was 61.6 µM in assay [12] and 8 nM in [13].
Take `COc1cc(CNc2nc3c(cnn3C3CCCC3)c(=O)[nH]2)ccc1OC(=O)N(C)C`: the IC50 in assay [14] amounted to 17 nM; in assay [12], 0.97 µM.
In the case of `O=C(Nc1ccccc1)Oc1cccc(CN2CCN(c3ccccc3)CC2)c1`, in assay [15], inhibition was half-maximal at 2000 nM (IC50).
Turning to `O=C(Nc1ccccc1)OC1CN2CCC1CC2` (stereo unspecified), the inhibition constant (Ki) in [16] is 3000 nM; in [17] it was 1000 nM.
On to `C#CCN1CCC(CCc2cccc(OC(=O)N(C)CC)c2)CC1`, for which the inhibition in assay [10] is 50.2%. In assay [11], the inhibition at 100 µM amounted to 69.4%.
Consider `CCN(CC)C(=O)OC1C[N+]2(C)CCC1CC2` (stereo unspecified), for which the Ki in [16] was 1500 nM; in [17], 3500 nM.
On to `O=C(CCCCC1CCSS1)O[C@@H]1CO[C@H]2[C@@H]1OC[C@@H]2OC(=O)NCc1ccccc1` (stereo partly specified), for which the Ratio IC50 in assay [18] was determined as 667.
`CC(C)c1ccc(NC(=O)Oc2ccc3c(c2)[C@]2(C)CCN(Cc4ccc(F)cc4)[C@@H]2N3C)cc1`: the Ki in assay [19] is 342 nM.
Consider `CCc1ccccc1NC(=O)Oc1ccc2c(c1)[C@]1(C)CC[N+](C)([O-])[C@@H]1N2C` (stereo partly specified), for which, in assay [20], the Ratio IC50 was determined as 115. This compound also came in with an IC50 in assay [21] of 4.74 nM.

As a reminder, the IC50 is the concentration needed to halve the response being measured. For orientation: Ki means the equilibrium dissociation constant of an inhibitor or competing ligand from its target. A word on the inhibition: it is the drop in the measured response relative to a control, in per cent.

The record behind these values is ChEMBL document CHEMBL5214927, “Recent advance on carbamate-based cholinesterase inhibitors as potential multifunctional agents against Alzheimer's disease” (Eur J Med Chem, 2022).
